Our source for the EC50 values is patent US11078216B2, “Bisaryl amides as NRF2 activators” (GLAXOSMITHKLINE INTELLECTUAL PROPERTY DEVELOPMENT LIMITED, priority 2016, dated 2021).

Each structure is given as a SMILES string. Counter-ions that a name gives are not always drawn.

This test has as its system NRF2 (NQO1 activity as marker for NRF2 activation), BEAS-2B cells. The experiment in a line: BEAS-2B NQO1 MTT Assay. The test is classed as cell-based. Particulars: Homo sapiens, EC50 of NQO1 specific activity induction, 48 hours incubation, read-out: EC50. Summed up: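 BEAS-2B cells were exposed to compound for 48 h at 37° C, 5% CO2, then lysed. NQO1 activity was measured kinetically by MTT reduction at 570 nm over 30 minutes; EC50 came from 3-parameter fit of Delta OD/min versus log concentration.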

For the molecule `CC[C@@H]1CN(Cc2cc([C@@H](CC(=O)Nc3cccnc3)c3ccc4c(nnn4C)c3C)ccc2C)Cc2ncccc2O1` [Example 46, (R)-3-(1,4-Dimethyl-1H-benzo[d][1,2,3]triazol-5-yl)-3-(3-(((R)-2-ethyl-2,3-dihydropyrido[2,3-f][1,4]oxazepin-4(5H)-yl)methyl)-4-methylphenyl)-N-(pyridin-3-yl)propanamide, Formic Acid Salt], the EC50 lay within 1000 to 10000 nM. `CC[C@@H]1CN(Cc2cc([C@H](CC(=O)NCCCC#N)c3ccc4c(nnn4CC)c3C)ccc2C)S(=O)(=O)c2cccnc2O1` [Example 44, (S)-N-(3-Cyanopropyl)-3-(3-(((R)-4-ethyl-1,1-dioxido-3,4-dihydro-2H-pyrido[2,3-b][1,4,5]oxathiazepin-2-yl)methyl)-4-methylphenyl)-3-(1-ethyl-4-methyl-1H-benzo[d][1,2,3]triazol-5-yl)propanamide]: the EC50 was 100 to 1000 nM.

With `CC[C@@H]1CN(Cc2cc([C@@H](c3ccc4c(nnn4C)c3C)C(C)(C)C(=O)NCCNC)ccc2C)Cc2cnccc2O1` [Example 79, (S)-3-(1,4-Dimethyl-1H-benzo[d][1,2,3]triazol-5-yl)-3-(3-(((R)-2-ethyl-2,3-dihydropyrido[3,4-f][1,4]oxazepin-4(5H)-yl)methyl)-4-methylphenyl)-2,2-dimethyl-N-(2-(methylamino)ethyl)propanamide], the concentration for a half-maximal effect (EC50) was in the range of 100 to 1000 nM. As for `CC[C@@H]1CN(Cc2cc([C@@H](c3ccc4c(nnn4CC)c3C)C(C)(C)C(=O)N(CCC(=O)O)CC(=O)O)ccc2C)S(=O)(=O)c2ccccc2O1` [Example 213, 3-((S)-N-(carboxymethyl)-3-(3-(((R)-4-ethyl-1,1-dioxido-3,4-dihydro-2H-benzo[b][1,4,5]oxathiazepin-2-yl)methyl)-4-methylphenyl)-3-(1-ethyl-4-methyl-1H-benzo[d][1,2,3]triazol-5-yl)-2,2-dimethylpropanamido)propanoic acid], the EC50 was in the range of 10 to 100 nM. The result for `CC[C@@H]1CN(Cc2cc([C@@H](c3ccc4c(nnn4CC)c3C)C(C)(C)C(=O)Nc3cnc(C(=O)N(C)C)nc3)ccc2C)S(=O)(=O)c2ccccc2O1` [Example 189, 5-((S)-3-(3-(((R)-4-Ethyl-1,1-dioxido-3,4-dihydro-2H-benzo[b][1,4,5]oxathiazepin-2-yl)methyl)-4-methylphenyl)-3-(1-ethyl-4-methyl-1H-benzo[d][1,2,3]triazol-5-yl)-2,2-dimethylpropanamido)-N,N-dimethylpyrimidine-2-carboxamide] reads 100 to 1000 nM. The value for `CC[C@@H]1CN(Cc2cc([C@H](CC(=O)n3ccc(N)n3)c3ccc4c(nnn4CC)c3C)ccc2C)S(=O)(=O)c2cccnc2O1` [Example 6, (S)-1-(3-Amino-1H-pyrazol-1-yl)-3-(3-(((R)-4-ethyl-1,1-dioxido-3,4-dihydro-2H-pyrido[2,3-b][1,4,5]oxathiazepin-2-yl)methyl)-4-methylphenyl)-3-(1-ethyl-4-methyl-1H-benzo[d][1,2,3]triazol-5-yl)propan-1-one] was 1 to 10 nM. On to `CC[C@@H]1CN(Cc2cc([C@H](CC(=O)Nc3cnc(N4CCCCC4)nc3)c3ccc4c(nnn4CC)c3C)ccc2C)S(=O)(=O)c2cccnc2O1` [Example 125, (S)-3-(3-(((R)-4-Ethyl-1,1-dioxido-3,4-dihydro-2H-pyrido[2,3-b][1,4,5]oxathiazepin-2-yl)methyl)-4-methylphenyl)-3-(1-ethyl-4-methyl-1H-benzo[d][1,2,3]triazol-5-yl)-N-(2-(piperidin-1-yl)pyrimidin-5-yl)propanamide], for which the EC50 was in the range of 10 to 100 nM. For `CC[C@@H]1CN(Cc2cc([C@H](CC(=O)NCc3ncco3)c3ccc4c(nnn4CC)c3C)ccc2C)S(=O)(=O)c2cccnc2O1` [Example 3, (S)-3-(3-(((R)-4-Ethyl-1,1-dioxido-3,4-dihydro-2H-pyrido[2,3-b][1,4,5]oxathiazepin-2-yl)methyl)-4-methylphenyl)-3-(1-ethyl-4-methyl-1H-benzo[d][1,2,3]triazol-5-yl)-N-(oxazol-2-ylmethyl)propanamide], the EC50 fell in the range of 100 to 1000 nM. For `CC[C@@H]1CN(Cc2cc([C@H](CC(=O)Nc3cnccn3)c3ccc4c(nnn4CC)c3C)ccc2C)S(=O)(=O)c2cccnc2O1` [Example 118, (S)-3-(3-(((R)-4-Ethyl-1,1-dioxido-3,4-dihydro-2H-pyrido[2,3-b][1,4,5]oxathiazepin-2-yl)methyl)-4-methylphenyl)-3-(1-ethyl-4-methyl-1H-benzo[d][1,2,3]triazol-5-yl)-N-(pyrazin-2-yl)propanamide], the EC50 is 10 to 100 nM. Consider `CCCn1cc(CC[C@H](c2ccc(C)c(CN3C[C@@H](CC)Oc4ccccc4S3(=O)=O)c2)C(C)(C)C(=O)Nc2cccnc2)nn1` [Example 83, (R)-3-(3-(((R)-4-Ethyl-1,1-dioxido-3,4-dihydro-2H-benzo[b][1,4,5]oxathiazepin-2-yl)methyl)-4-methylphenyl)-2,2-dimethyl-5-(1-propyl-1H-1,2,3-triazol-4-yl)-N-(pyridin-3-yl)pentanamide], for which the EC50 was 100 to 1000 nM.

In the case of `CC[C@@H]1CN(Cc2cc([C@@H](c3ccc4c(nnn4CC)c3C)C(C)(C)C(=O)N[C@@H](CCC(=O)O)C(=O)O)ccc2C)S(=O)(=O)c2ccccc2O1` [Example 209, (S)-2-((S)-3-(3-(((R)-4-ethyl-1,1-dioxido-3,4-dihydro-2H-benzo[b][1,4,5]oxathiazepin-2-yl)methyl)-4-methylphenyl)-3-(1-ethyl-4-methyl-1H-benzo[d][1,2,3]triazol-5-yl)-2,2-dimethylpropanamido)pentanedioic acid], the EC50 was 1000 to 10000 nM. Consider `CC[C@@H]1CN(Cc2cc([C@@H](c3ccc4c(nnn4CC)c3C)C(C)(C)C(=O)Nc3cnc(SC)nc3)ccc2C)S(=O)(=O)c2cccnc2O1` [Example 115, (S)-3-(3-(((R)-4-Ethyl-1,1-dioxido-3,4-dihydro-2H-pyrido[2,3-b][1,4,5]oxathiazepin-2-yl)methyl)-4-methylphenyl)-3-(1-ethyl-4-methyl-1H-benzo[d][1,2,3]triazol-5-yl)-2,2-dimethyl-N-(2-(methylthio)pyrimidin-5-yl)propanamide], for which the EC50 lay in the range of 1 to 10 nM. As for `CC[C@@H]1CN(Cc2cc([C@@H](c3ccc4c(nnn4C)c3C)C(C)(C)C(N)=O)ccc2Cl)S(=O)(=O)c2ccccc2O1` [Example 89, (S)-3-(4-chloro-3-(((R)-4-ethyl-1,1-dioxido-3,4-dihydro-2H-benzo[b][1,4,5]oxathiazepin-2-yl)methyl)phenyl)-3-(1,4-dimethyl-1H-benzo[d][1,2,3]triazol-5-yl)-2,2-dimethylpropanamide], the 50% effective concentration (EC50) lay in the range of 10 to 100 nM.

Turning to `CC[C@H]1Cc2ccc(C(F)(F)F)cc2S(=O)(=O)N(Cc2cc([C@@H](OCc3cn(CC)nn3)C(C)(C)C(N)=O)ccc2C)C1` [Example 90, (R)-3-(3-(((S)-4-ethyl-1,1-dioxido-8-(trifluoromethyl)-4,5-dihydrobenzo[f][1,2]thiazepin-2(3H)-yl)methyl)-4-methylphenyl)-3-((1-ethyl-1H-1,2,3-triazol-4-yl)methoxy)-2,2-dimethylpropanamide], the EC50 lay within 100 to 1000 nM. On to `CC[C@@H]1CN(Cc2cc([C@@H](c3ccc4c(nnn4CC)c3C)C(C)(C)NC(=O)c3cscn3)ccc2C)S(=O)(=O)c2ccccc2O1` [Example 149, N-((S)-1-(3-(((R)-4-Ethyl-1,1-dioxido-3,4-dihydro-2H-benzo[b][1,4,5]oxathiazepin-2-yl)methyl)-4-methylphenyl)-1-(1-ethyl-4-methyl-1H-benzo[d][1,2,3]triazol-5-yl)-2-methylpropan-2-yl)thiazole-4-carboxamide], for which the EC50 lay in the range of 10 to 100 nM. For the molecule `CC[C@@H]1CN(Cc2cc([C@@H](c3ccc4c(nnn4CC)c3C)C(C)(C)NC(=O)c3cnc(N4CCOCC4)nc3)ccc2C)S(=O)(=O)c2ccccc2O1` [Example 164, N-((S)-1-(3-(((R)-4-Ethyl-1,1-dioxido-3,4-dihydro-2H-benzo[b][1,4,5]oxathiazepin-2-yl)methyl)-4-methylphenyl)-1-(1-ethyl-4-methyl-1H-benzo[d][1,2,3]triazol-5-yl)-2-methylpropan-2-yl)-2-morpholinopyrimidine-5-carboxamide], the EC50 was 10 to 100 nM.

For the molecule `CC[C@@H]1CN(Cc2cc([C@@H](c3ccc4c(nnn4CC)c3C)C(C)(C)C(=O)NC3CCS(=O)(=O)C3)ccc2C)S(=O)(=O)c2cccnc2O1` (stereo partly drawn) [Example 106, (3S)-N-(1,1-Dioxidotetrahydrothio-phen-3-yl)-3-(3-(((R)-4-ethyl-1,1-dioxido-3,4-dihydro-2H-pyrido[2,3-b][1,4,5]oxathiazepin-2-yl)methyl)-4-methylphenyl)-3-(1-ethyl-4-methyl-1H-benzo[d][1,2,3]triazol-5-yl)-2,2-dimethylpropanamide], the EC50 lay within 100 to 1000 nM. As for `CCn1nnc2c(C)c([C@@H](CC(=O)Nc3cccnc3)c3ccc(C)c(CN4C[C@@H](C)Cc5ccc(F)cc5S4(=O)=O)c3)ccc21` [Example 178, (S)-3-(1-ethyl-4-methyl-1H-benzo[d][1,2,3]triazol-5-yl)-3-(3-(((S)-8-fluoro-4-methyl-1,1-dioxido-4,5-dihydrobenzo[f][1,2]thiazepin-2(3H)-yl)methyl)-4-methylphenyl)-N-(pyridin-3-yl)propanamide], the EC50 lay in the range of 10 to 100 nM.

As to `CC[C@@H]1CN(Cc2cc([C@H](CC(=O)NC(C)C(N)=O)c3ccc4c(nnn4CC)c3C)ccc2C)S(=O)(=O)c2cccnc2O1` (stereo partly drawn) [Example 43, (3S)—N-(1-Amino-1-oxopropan-2-yl)-3-(3-(((R)-4-ethyl-1,1-dioxido-3,4-dihydro-2H-pyrido[2,3-b][1,4,5]oxathiazepin-2-yl)methyl)-4-methylphenyl)-3-(1-ethyl-4-methyl-1H-benzo[d][1,2,3]triazol-5-yl)propanamide], the half-maximal effective concentration (EC50) was in the range of 100 to 1000 nM.

With `CCn1nnc2c(C)c([C@@H](CC(=O)Nc3cccnc3)c3ccc(C)c(CN4C[C@@H](C)Cc5ccc(C(F)(F)F)cc5S4(=O)=O)c3)cc(OC)c21` [Example 181, (S)-3-(1-ethyl-7-methoxy-4-methyl-1H-benzo[d][1,2,3]triazol-5-yl)-3-(4-methyl-3-(((S)-4-methyl-1,1-dioxido-8-(trifluoromethyl)-4,5-dihydrobenzo[f][1,2]thiazepin-2(3H)-yl)methyl)phenyl)-N-(pyridin-3-yl)propanamide], the EC50 fell in the range of 10 to 100 nM.
